Results reported in patent publication US12285428B2 (IMBRIA PHARMACEUTICALS, INC., priority 2021, dated 2025).

Experiments:
[1] = tested on: patients with Type 2 Diabetes mellitus and obesity; assay: Open label Phase 2 study IMB101-005 DICE: spontaneously reported renal and urinary findings; type: in vivo, human; conditions: 200 mg MR BID for 8 weeks (N=22)
Method: In the early Phase 1 study in healthy volunteers and early Phase 2 studies in patients, there were instances of increased urine volume and increased urinary frequency spontaneously reported. • In the first-in-man study, CIMB8972-101, healthy volunteers were dosed with single doses of IMB-1018972 at 50 mg or 200 mg of the modified release (MR) formulation. Two of 12 subjects [2/12] (16.7%) reported 5 events of pollakiuria at both doses. • In an open label Phase 2 study (IMB101-005 DICE) treating patients with Type 2 Diabetes mellitus and obesity for 8 weeks with 200 mg MR BID, two of 22 patients [2/22] (9.1%) spontaneously reported renal and urinary findings. One patient reported pollakiuria and one patient reported increased nocturnal urinary frequency. • In a blinded, randomized, controlled, Phase 2 study (IMB101-006 […]) treating patients with stable angina for 8 weeks with 200 mg MR BID, one of 22 patients [1/22] (4.5%) spontaneously reported renal and urinary findings. One patient reported polyuria.

healthy subjects = assay: FIH study, multiple-dose MR part: safety and tolerability; type: in vivo, human
Method: AEs were recorded from (first) admission until completion of the follow-up visit. Any clinically significant observations in results of clinical laboratory, 12-lead ECGs, vital signs, or physical examinations were recorded as AEs.
A treatment-emergent AE (TEAE) was defined as any event not present prior to (the first) administration of the study drug or any event already present that worsened in either severity or frequency following exposure to the study drug.
At several time points before and after drug administration, subjects were asked nonleading questions to determine the occurrence of AEs. Subjects were asked in general terms about any AEs at regular intervals during the study. In addition, all AEs reported spontaneously during the course of the study were recorded. Details included description of the event, date and time of onset, date and time of end, total duration, severity, relationship to study drug, intervention, seriousness, and outcome. All answers were interpreted by the Investigator and were recorded in the eCRF. All AEs were classified according to the Medical Dictionary for Regulatory Activities (MedDRA; Version 22.0) for AEs.
The severity of the AEs was rated as mild, moderate, or severe; the relationship between the AEs and the study drug was indicated as none, unlikely, possibly, likely, or definitely. Adverse events assessed as possibly, likely, or definitely were considered related to the study drug; AEs assessed as none or unlikely were considered not related to the study drug.

With COc1ccc(CN2CCN(CCOC(=O)c3cccnc3)CC2)c(OC)c1OC [IMB-1018972, 2-[4-[(2,3,4-trimethoxyphenyl)methyl]piperazin-1-yl]ethyl pyridine-3-carboxylate] the “Patients reporting increased nocturnal urinary frequency” value [1] was “one”, the Patients reporting pollakiuria [1] was “One” and the “Patients spontaneously reporting renal and urinary findings” value [1] was 9.1%. For the same compound, the “Severity of flushing (2 subjects)” value (healthy subjects; 200 mg 8-hour MR q12h, fed) was “mild”, the “Severity of all TEAEs” value (healthy subjects; multiple-dose MR part) was “mild” and the “Number of TEAEs” value (healthy subjects; multiple-dose MR part (N=12)) was 40. For the same compound, the “Number of TEAEs considered not related to the study drug” value (healthy subjects; multiple-dose MR part (N=12)) was 30, the “Number of TEAEs considered related to the study drug” value (healthy subjects; multiple-dose MR part (N=12)) was 10 and the “Number of TEAEs, SOC gastrointestinal disorders” value (healthy subjects; multiple-dose MR part (N=12)) was 9. The “Number of TEAEs, SOC general disorders and administration site conditions” value (healthy subjects; multiple-dose MR part (N=12)) was 4, the “Number of TEAEs, SOC musculoskeletal and connective tissue disorders” value (healthy subjects; multiple-dose MR part (N=12)) was 4 and the “Number of TEAEs, SOC nervous system disorders” value (healthy subjects; multiple-dose MR part (N=12)) was 9. The “Number of TEAEs, SOC renal and urinary disorders (pollakiuria)” value (healthy subjects; multiple-dose MR part (N=12)) was 4, the “Number of drug-related TEAEs of flushing” value (healthy subjects; multiple-dose MR part (N=12)) was 2 and the “Number of drug-related TEAEs of pollakiuria” value (healthy subjects; multiple-dose MR part (N=12)) was 4. For the same compound, the “Number of drug-related TEAEs, nervous system disorders” value (healthy subjects; multiple-dose MR part (N=12)) was 2, the “Subjects reporting TEAEs” value (healthy subjects; multiple-dose MR part (N=12)) was 100% and the “Subjects reporting TEAEs considered not related to the study drug” value (healthy subjects; multiple-dose MR part (N=12)) was 75%. For the same compound, the “Subjects reporting TEAEs considered related to the study drug” value (healthy subjects; multiple-dose MR part (N=12)) was 58.3%, the “Subjects reporting TEAEs, SOC gastrointestinal disorders” value (healthy subjects; multiple-dose MR part (N=12)) was 41.7% and the “Subjects reporting TEAEs, SOC general disorders and administration site conditions” value (healthy subjects; multiple-dose MR part (N=12)) was 33.3%. For the same compound, the “Subjects reporting TEAEs, SOC musculoskeletal and connective tissue disorders” value (healthy subjects; multiple-dose MR part (N=12)) was 33.3%, the “Subjects reporting TEAEs, SOC nervous system disorders” value (healthy subjects; multiple-dose MR part (N=12)) was 58.3% and the “Subjects reporting TEAEs, SOC renal and urinary disorders (pollakiuria)” value (healthy subjects; multiple-dose MR part (N=12)) was 33.3%. For the same compound, the “Subjects reporting drug-related TEAEs of flushing” value (healthy subjects; multiple-dose MR part (N=12)) was 16.7%, the “Subjects reporting drug-related TEAEs of pollakiuria” value (healthy subjects; multiple-dose MR part (N=12)) was 33.3% and the “Subjects reporting drug-related TEAEs, nervous system disorders” value (healthy subjects; multiple-dose MR part (N=12)) was 16.7%.
